# According to PubChem BioAssay (NCI):
# Where “and” joins values, the source holds several entries; their conditions need not be identical. Equal values may be shown once.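 Following 48 hours of exposure in 96-well plates, responses at five concentrations were used to interpolate endpoints linearly. At the GI50, growth is halved. TGI: total growth inhibition.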
# Columns and labels:
# Assay in all cases: NCI-60 cell line screen, 48 h
# [1] = system: 786-0 renal
# [2] = system: A498 renal
# [3] = system: A549 NSCLC
# [4] = system: ACHN renal
# [5] = system: BT-549 breast
# [6] = system: CAKI-1 renal
# [7] = system: CCRF-CEM leukemia
# [8] = system: COLO 205 colon
# [9] = system: DU-145 prostate
# [10] = system: EKVX NSCLC
# [11] = system: HCC-2998 colon
# [12] = system: HCT-116 colon
# [13] = system: HCT-15 colon
# [14] = system: HL-60(TB) leukemia
# [15] = system: HOP-62 NSCLC
# [16] = system: HOP-92 NSCLC
# [17] = system: HS 578T breast
# [18] = system: HT29 colon
# [19] = system: IGROV1 ovarian
# [20] = system: K-562 leukemia
# [21] = system: KM12 colon
# [22] = system: KM20L2 colon
# [23] = system: LOX IMVI melanoma
# [24] = system: LXFL 529 NSCLC
# [25] = system: M14 melanoma
# [26] = system: MALME-3M melanoma
# [27] = system: MCF7 breast
# [28] = system: MDA-MB-231 breast
# [29] = system: MDA-MB-435
# [30] = system: MDA-N
# [31] = system: MOLT-4 leukemia
# [32] = system: NCI-H226 lung
# [33] = system: NCI-H23 lung
# [34] = system: NCI-H460 lung
# [35] = system: NCI-H522 lung
# [36] = system: NCI/ADR-RES ovarian
# [37] = system: OVCAR-3 ovarian
# [38] = system: OVCAR-4 ovarian
# [39] = system: OVCAR-5 ovarian
# [40] = system: OVCAR-8 ovarian
# [41] = system: PC-3 prostate
# [42] = system: RPMI-8226 leukemia
# [43] = system: RXF 393 renal
# [44] = system: SF-268 CNS
# [45] = system: SF-295 CNS
# [46] = system: SF-539 CNS
# [47] = system: SK-MEL-2 melanoma
# [48] = system: SK-MEL-28 melanoma
# [49] = system: SK-MEL-5 melanoma
# [50] = system: SK-OV-3 ovarian
# [51] = system: SN12C renal
# [52] = system: SNB-19 CNS
# [53] = system: SNB-75 CNS
# [54] = system: SNB-78 CNS
# [55] = system: SR leukemia
# [56] = system: SW-620 colon
# [57] = system: T-47D breast
# [58] = system: TK-10 renal
# [59] = system: U251 CNS
# [60] = system: UACC-257 melanoma
# [61] = system: UACC-62 melanoma
# [62] = system: UO-31 renal
structure (smiles),measurement,setting,value
COc1ccc(-c2nc(SC)n(C3OC(COC(C)=O)C(OC(C)=O)C(OC(C)=O)C3OC(C)=O)c(=O)c2C#N)cc1 (configuration not stated),TGI,[1],> 100 µM
same,GI50,[2],8.43 µM and 44.1 µM
same,TGI,[2],44.5 µM and > 100 µM
same,TGI,[3],> 100 µM
same,GI50,[4],35.8 µM and > 100 µM
same,TGI,[4],> 100 µM
same,TGI,[5],> 100 µM
same,TGI,[6],> 100 µM
same,TGI,[7],> 100 µM
same,TGI,[8],> 100 µM
same,TGI,[9],> 100 µM
same,TGI,[10],> 100 µM
same,TGI,[11],> 100 µM
same,TGI,[12],> 100 µM
same,TGI,[13],> 100 µM
same,TGI,[14],> 100 µM
same,GI50,[15],24.4 µM and > 100 µM
same,TGI,[15],52.7 µM and > 100 µM
same,GI50,[16],14.1 µM and 39.2 µM
same,TGI,[16],52.9 µM and > 100 µM
same,TGI,[17],> 100 µM
same,TGI,[18],> 100 µM
same,TGI,[19],> 100 µM
same,TGI,[20],> 100 µM
same,TGI,[21],> 100 µM
same,TGI,[22],> 100 µM
same,TGI,[23],> 100 µM
same,TGI,[24],> 100 µM
same,TGI,[25],> 100 µM
same,TGI,[26],> 100 µM
same,TGI,[27],> 100 µM
same,TGI,[28],> 100 µM
same,TGI,[29],> 100 µM
same,TGI,[30],> 100 µM
same,TGI,[31],> 100 µM
same,TGI,[32],> 100 µM
same,GI50,[33],35.7 µM and > 100 µM
same,TGI,[33],> 100 µM
same,GI50,[34],80.4 µM and 14.4 µM
same,TGI,[34],> 100 µM
same,GI50,[35],18.7 µM and > 100 µM
same,TGI,[35],72.7 µM and > 100 µM
same,TGI,[36],> 100 µM
same,GI50,[37],38.2 µM and > 100 µM
same,TGI,[37],> 100 µM
same,GI50,[38],29.3 µM and > 100 µM
same,TGI,[38],> 100 µM
same,GI50,[39],> 100 µM
same,TGI,[39],> 100 µM
same,TGI,[40],> 100 µM
same,TGI,[41],> 100 µM
same,GI50,[42],47.4 µM and > 100 µM
same,TGI,[42],> 100 µM
same,GI50,[43],16.5 µM and > 100 µM
same,TGI,[43],35.4 µM and > 100 µM
same,GI50,[44],21.8 µM and 76.4 µM
same,TGI,[44],> 100 µM
same,GI50,[45],24.2 µM and > 100 µM
same,TGI,[45],65.6 µM and > 100 µM
same,GI50,[46],31.3 µM and > 100 µM
same,TGI,[46],81.9 µM and > 100 µM
same,TGI,[47],> 100 µM
same,TGI,[48],> 100 µM
same,TGI,[49],> 100 µM
same,GI50,[50],34.5 µM and > 100 µM
same,TGI,[50],98.4 µM and > 100 µM
same,TGI,[51],> 100 µM
same,GI50,[52],26.3 µM and > 100 µM
same,TGI,[52],> 100 µM
same,GI50,[53],22.8 µM and 65.6 µM
same,TGI,[53],57.9 µM and > 100 µM
same,TGI,[54],57.8 µM
same,TGI,[55],> 100 µM
same,TGI,[56],> 100 µM
same,TGI,[57],> 100 µM
same,TGI,[58],> 100 µM
same,TGI,[59],> 100 µM
same,TGI,[60],> 100 µM
same,GI50,[61],40.5 µM and > 100 µM
same,TGI,[61],> 100 µM
same,TGI,[62],77.6 µM and > 100 µM
COC(=O)C1(Cc2ccc(C)cc2)Cc2c(C)cccc2C1=O (configuration not stated),TGI,[1],76.8 µM
same,TGI,[2],41.8 µM
same,TGI,[3],54.5 µM
same,TGI,[4],76.9 µM
same,TGI,[5],69.7 µM
same,TGI,[6],> 100 µM
same,TGI,[7],> 100 µM
same,TGI,[8],33.4 µM
same,TGI,[9],72 µM
same,TGI,[10],> 100 µM
same,TGI,[11],42.2 µM
same,TGI,[12],31.9 µM
same,TGI,[13],75.9 µM
same,TGI,[14],25 µM
same,TGI,[15],65.5 µM
same,TGI,[16],43.9 µM
same,TGI,[17],46.9 µM
same,TGI,[18],34.2 µM
same,TGI,[19],> 100 µM
same,TGI,[20],> 100 µM
same,TGI,[21],39.5 µM
same,TGI,[23],38.6 µM
same,TGI,[25],> 100 µM
same,TGI,[26],30.8 µM
same,TGI,[27],28.4 µM
same,TGI,[28],> 100 µM
same,TGI,[29],13.2 µM
same,TGI,[30],14.4 µM
same,TGI,[31],> 100 µM
same,TGI,[32],38.4 µM
same,TGI,[33],> 100 µM
same,TGI,[34],39.2 µM
same,TGI,[35],42.1 µM
same,TGI,[36],80.9 µM
same,TGI,[37],34.5 µM
same,TGI,[38],98.9 µM
same,TGI,[39],> 100 µM
same,TGI,[40],> 100 µM
same,TGI,[41],42 µM
same,TGI,[42],40.6 µM
same,TGI,[43],40.5 µM
same,TGI,[44],> 100 µM
same,TGI,[45],> 100 µM
same,TGI,[46],34.5 µM
same,TGI,[47],28.7 µM
same,TGI,[48],> 100 µM
same,TGI,[49],26.3 µM
same,TGI,[50],> 100 µM
same,TGI,[51],43.4 µM
same,TGI,[52],90.3 µM
same,TGI,[53],> 100 µM
same,TGI,[55],50.9 µM
same,TGI,[56],> 100 µM
same,TGI,[57],72.1 µM
same,TGI,[58],86.2 µM
same,TGI,[59],66.5 µM
same,TGI,[60],91.3 µM
same,TGI,[61],92 µM
same,TGI,[62],> 100 µM
COc1c2occc2cc2ccc(=O)oc12,TGI,[1],> 100 µM
same,TGI,[2],> 100 µM
same,TGI,[3],> 100 µM
same,TGI,[4],> 100 µM
same,TGI,[5],> 100 µM
same,TGI,[6],> 100 µM
same,TGI,[7],> 100 µM
same,TGI,[8],> 100 µM
same,TGI,[9],> 100 µM
same,GI50,[10],96.9 µM
same,TGI,[10],> 100 µM
same,TGI,[11],> 100 µM
same,TGI,[12],> 100 µM
same,TGI,[13],> 100 µM
same,TGI,[14],> 100 µM
same,TGI,[15],> 100 µM
same,TGI,[16],> 100 µM
same,GI50,[17],> 100 µM
same,TGI,[17],> 100 µM
same,GI50,[18],> 100 µM
same,TGI,[18],> 100 µM
same,GI50,[19],> 100 µM
same,TGI,[19],> 100 µM
same,TGI,[20],> 100 µM
same,GI50,[21],> 100 µM
same,TGI,[21],> 100 µM
same,TGI,[23],> 100 µM
same,TGI,[25],> 100 µM
same,GI50,[26],> 100 µM
same,TGI,[26],> 100 µM
same,TGI,[27],> 100 µM
same,TGI,[28],> 100 µM
same,TGI,[29],> 100 µM
same,TGI,[30],> 100 µM
same,TGI,[31],> 100 µM
same,GI50,[32],> 100 µM
same,TGI,[32],> 100 µM
same,TGI,[33],> 100 µM
same,TGI,[34],> 100 µM
same,GI50,[35],> 100 µM
same,TGI,[35],> 100 µM
same,GI50,[36],> 100 µM
same,TGI,[36],> 100 µM
same,TGI,[37],> 100 µM
same,TGI,[38],> 100 µM
same,TGI,[39],> 100 µM
same,GI50,[40],> 100 µM
same,TGI,[40],> 100 µM
same,TGI,[41],> 100 µM
same,TGI,[42],> 100 µM
same,GI50,[43],> 100 µM
same,TGI,[43],> 100 µM
same,GI50,[44],> 100 µM
same,TGI,[44],> 100 µM
same,TGI,[45],> 100 µM
same,TGI,[46],> 100 µM
same,TGI,[47],> 100 µM
same,TGI,[48],> 100 µM
same,TGI,[49],> 100 µM
same,TGI,[50],> 100 µM
same,TGI,[51],> 100 µM
same,TGI,[52],> 100 µM
same,GI50,[53],55.1 µM
same,TGI,[53],> 100 µM
same,TGI,[55],> 100 µM
same,TGI,[56],> 100 µM
same,TGI,[57],> 100 µM
same,TGI,[58],> 100 µM
same,TGI,[59],> 100 µM
same,TGI,[60],> 100 µM
same,TGI,[61],> 100 µM
same,TGI,[62],> 100 µM
